How the values were obtained:
[1] = tested on: Cytc (Cytochrome-c) mRNA in HT-29 cells; test: sqRT-PCR gene expression, Cytc; assay type: cell-based, human; details: 200 μM, 24 h, vs untreated cells
Procedure: (§1) Total RNA was isolated from HT-29 cells using the TRIzol reagent (TaKara, Japan) following the manufacturer’s instruction. The quantity and quality of each RNA sample were analyzed with a NanoDrop-1000 (Thermo Fisher Scientific, USA), followed by conversion to cDNA using RevertAid cDNA synthesis kit (Thermo Fisher Scientific, CA, USA) using 1 μg of mRNA to synthesize cDNA. Semi-quantitative reverse transcriptase-polymerase chain (sqRT-PCR) reaction was carried out in a Veriti Thermal Cycler (Applied Biosystems, CA, USA) using 2X Taq DNA polymerase Master Mix RED (Ampliqon, Denmark, Germany) as we previously described method. All sqRT-PCRs were run for at least three times. GAPDH served as a housekeeping gene to normalize the expression levels. The expression levels were analyzed by measuring the intensity of the band from the gel using Image-J software.

[2] = tested on: Cytc protein in HT-29 cells; test: Western blot, Cytc protein; assay type: cell-based, human; details: 100 μM, 24 h, whole-cell lysate, vs untreated cells
Procedure: (§2) Total protein was isolated from HT-29 cells by using lysis buffer. Cells were collected by centrifugation at 1,500 rpm for 5 min. After that, cell pellets were re-suspended with RIPA lysis buffer consisting of 1 mM protease inhibitor cocktail (PIC; Sigma-Aldrich; P8340) and lysed at […] for 1 h. After incubation, the protein was obtained by centrifugation at 13,000 × g for 15 min and kept for − 80 °C until analysis. Also, mitochondrial and cytosolic fractions were obtained by using fraction lysis buffer as described previously[50] with minor modifications. Lysed cells were kept in ice for 10 min and then cells were triturated by a 27 gauge syringe (25 strokes) to become homogeneous followed by centrifugation at 13,000 × g for 30 min. The collected supernatant was the cytosolic fraction. After the pellet was washed with lysis buffer and it was dissolved in lysis buffer for protein quantification. Protein concentration was measured by Pierce BCA protein assay kit (Thermo Scientific Laboratories, Rockford, USA) according to the manufacturer instructions. Equal amounts of proteins from all samples were separated by 10% SDS–polyacrylamide gel electrophoresis (SDS-PAGE) and electrotransferred. Polyvinylidene difluoride (PVDF) membrane was blocked with 5% skimmed milk for 1 h, followed by incubation with primary (Cytochrome-c: sc-13560; Bid: sc-11423; COX-IV: #4850; 1:2000; GAPDH: #3683; 1:10,000) and HRP-conjugated secondary (Got Anti-mouse IgG: 20102; Got anti-rabbit IgG: 20202: 1:10,000) antibodies against specific proteins. The protein signals were detected by Enhanced Chemiluminescence (ECL) detection kit (Amersham Piscataway, NJ, USA). The protein expression levels were analyzed by measuring the intensity of the band from scanned films using Image-J software. GAPDH and COX-IV served as a housekeeping protein to normalize the expression levels.

[3] = tested on: Bid protein in HT-29 cells; test: Western blot, Bid protein; assay type: cell-based, human; details: for Bid protein expression up-regulation: 200 μM, 24 h, vs untreated group
Procedure: as §2

HT-29 cells = test: Annexin V-FITC/PI double staining, flow cytometry; assay type: cell-based, human; details: 24 h; for LA/NC Q2 late apoptotic or/and necrotic cells, fold change / Q1 + Q2 total dead cells, fold change / Q1 dead cells, fold change / Q2 + Q3 total apoptotic cells, fold change / EAC Q3 early apoptotic cells, fold change: vs CTL; for viability at 50 µM / viability at 100 µM / viability at 200 µM: Homo sapiens, HT-29, quadrant plot, read-out: Percentage of viable (Q4) cells
Procedure: The dead, necrotic, and apoptotic cells were analyzed by annexin V/PI double staining method, which was used to detect the externalization of phosphatidylserine (PS). Briefly, cells at the density of 4.5 × 10^4 cells/well were seeded into 6-well plates and treated with or without DKPs for 24 h. Subsequently, both floating and adherent cells were harvested by centrifugation at 1,500 rpm for 5 min, then re-suspended in 300 μL of 1X binding buffer, followed by 3 μL of annexin V-FITC and propidium iodide (PI) (Apoptosis Detection kit, Lead Gen, Taiwan) was added into each sample and incubated for 20 min at room temperature in the dark following the protocol recommended by the manufactures. Cells were analyzed by flow cytometry (FACS Calibur, Becton Dickinson, CA, USA) using WinMDI 2.9 software (La Jolla, CA, USA). The individual populations can be defined using quadrant gates, the number of cells in each quadrant indicated the following: Quadrant-1 (Q1): annexin V^-/PI^+ cells were considered as dead cells; Quadrant-2 (Q2): Annexin V^+/PI^+ cells were considered as late apoptotic and necrotic cells; Quadrant-3 (Q3): Annexin V^+/PI^− cells were considered as early apoptotic cells; Quadrant-4 (Q4): Annexin V^-/PI^- cells were considered as healthy. Data were analyzed using FlowJo V12.1 software (Tree stat, Stanford, CA, USA).

zebrafish (ABiC) embryos = test: Zebrafish embryo developmental toxicity assay; assay type: in vivo, zebrafish (Danio rerio); details: for survival rate of embryos compared with untreated and DMSO treated embryos: 50, 100 and 150 μM, 96 hpf
[4] = tested on: Casp-3 (Caspase-3) mRNA in HT-29 cells; test: sqRT-PCR gene expression, Casp-3; assay type: cell-based, human; details: 200 μM, 24 h, vs untreated cells
Procedure: as §1

Row | SMILES | Cytc gene expression up-regulation [1] | Cytc protein expression up-regulation [2] | Bid protein expression up-regulation [3] | LA/NC Q2 late apoptotic or/and necrotic cells, fold change (HT-29 cells; 50 μM) | Q1 + Q2 total dead cells, fold change (HT-29 cells; 50 μM) | Q1 dead cells, fold change (HT-29 cells; 50 μM) | Q2 + Q3 total apoptotic cells, fold change (HT-29 cells; 50 μM) | LA/NC Q2 late apoptotic or/and necrotic cells, fold change (HT-29 cells; 100 μM) | Q1 + Q2 total dead cells, fold change (HT-29 cells; 100 μM) | Q1 dead cells, fold change (HT-29 cells; 100 μM) | Q2 + Q3 total apoptotic cells, fold change (HT-29 cells; 100 μM) | LA/NC Q2 late apoptotic or/and necrotic cells, fold change (HT-29 cells; 200 μM) | Q1 + Q2 total dead cells, fold change (HT-29 cells; 200 μM) | Q1 dead cells, fold change (HT-29 cells; 200 μM) | Q2 + Q3 total apoptotic cells, fold change (HT-29 cells; 200 μM) | viability at 50 µM (HT-29 cells; 50 μM) | viability at 100 µM (HT-29 cells; 100 μM) | viability at 200 µM (HT-29 cells; 200 μM) | survival rate of embryos compared with untreated and DMSO treated embryos (zebrafish (ABiC) embryos) | Casp-3 gene expression up-regulation [4] | other results
1 | CC(C)C[C@@H]1NC(=O)[C@@H]2CCCN2C1=O [DKP-1, cyclo (L-Pro-L-Leu)] | 2.32 fold | 1.21 fold | 1.32 fold | 2.3 fold | 1.7 fold | 1.5 fold | 2.3 fold | 2.6 fold | 3.0 fold | 3.1 fold | 3.6 fold | 9.9 fold | 3.3 fold | 1.1 fold | 11.4 fold | 83.3% | 69.7% | 56.3% | no significant decrease | 2.32 fold | 
2 | CC(C)[C@@H]1NC(=O)[C@@H]2CCCN2C1=O [DKP-2, cyclo (L-Pro-L-Val)] | 1.78 fold |  | 1.21 fold | 2.5 fold | 1.7 fold | 1.5 fold | 2.7 fold | 3.5 fold | 3.1 fold | 3.0 fold | 3.9 fold | 11.2 fold | 3.5 fold | 1.2 fold | 11.0 fold | 79.3% | 64.2% | 52.5% | no significant decrease | 1.31 fold | EAC Q3 early apoptotic cells, fold change (HT-29 cells; 50 μM): 3.0 fold; EAC Q3 early apoptotic cells, fold change (HT-29 cells; 100 μM): 4.5 fold; EAC Q3 early apoptotic cells, fold change (HT-29 cells; 200 μM): 10.6 fold
3 | O=C1N[C@@H](Cc2ccccc2)C(=O)N2CCC[C@@H]12 [DKP-3, cyclo (L-Pro-L-Phe)] | 4.29 fold | 1.45 fold | 1.76 fold | 10.5 fold | 3.3 fold | 1.7 fold | 12.7 fold | 14.9 fold | 3.8 fold | 1.4 fold | 15.9 fold | 15.6 fold | 3.8 fold | 1.3 fold | 18.1 fold | 55.8% | 50% | 45.4% |  | 1.76 fold | EAC Q3 early apoptotic cells, fold change (HT-29 cells; 50 μM): 16.5 fold; EAC Q3 early apoptotic cells, fold change (HT-29 cells; 100 μM): 17.4 fold; EAC Q3 early apoptotic cells, fold change (HT-29 cells; 200 μM): 22.3 fold; survival rate of embryos compared with untreated embryos (zebrafish (ABiC) embryos; lower doses (50 and 150 μM)): higher
4 | O=C1N[C@@H](Cc2ccc(O)cc2)C(=O)N2CCC[C@@H]12 [DKP-4, cyclo (L-Pro-L-Tyr)] | 3.62 fold | 1.85 fold |  | 8.4 fold | 3.0 fold | 1.5 fold | 12.6 fold | 14.6 fold | 3.9 fold | 1.0 fold | 15.9 fold | 18.0 fold | 5.5 fold | 2.1 fold | 15.5 fold | 57.6% | 52% | 46.5% | no significant decrease | 2.73 fold | Bid protein expression level ([3]; 100 μM, vs control and 200 μM): increased the expression level of Bid; EAC Q3 early apoptotic cells, fold change (HT-29 cells; 50 μM): 20.5 fold; EAC Q3 early apoptotic cells, fold change (HT-29 cells; 100 μM): 18.4 fold; EAC Q3 early apoptotic cells, fold change (HT-29 cells; 200 μM): 10.8 fold

From PMC7426938, “Induction of mitochondria-mediated apoptosis and suppression of tumor growth in zebrafish xenograft model by cyclic dipeptides identified from Exiguobacterium acetylicum” (Scientific Reports, 2020)
